Laboratory results published in US6391826B1, “Optically active uracil compounds” (Sumitomo Chemical Company, Limited, priority 1998, dated 2002).

What was measured:
Type in all cases: in vivo
Design in all cases: key: “0” means that there was no or little difference in the degree of germination or growth between the treated and the untreated tested plants at the time of examination; “5” means that the test plants died complete or their germination or growth was completely inhibited
[1] = system: barnyardgrass (Echinochloa crus-gali); test: Test Example 4: soil surface treatment on upland fields; details: examined after 25 days, index 0-5
Description: (§1) Soil Surface Treatment on upland fields Plastic pots which have an area of (26.5×19)cm^2 and a depth of 7 cm were filled with upland soil, seeded with hemp sesbania (Sesbania exaltata), barnyardgrass (Echinochloa crus-gali) and johnsongrass (Sorghum halepense). Each of the test compounds was formulated into emulsifiable concentrates according to Formulation Example 2, which was diluted with a designated amount of water, and such was uniformly sprayed over the soil surface in the pots with a sprayer at a volume of 100 liters per hectare. After the application, the test were grown in a greenhouse for 25 days, and the herbicidal activity was examined.

[2] = system: hemp sesbania (Sesbania exaltata); test: as above; details: examined after 25 days, index 0-5
Description: as §1

[3] = system: johnsongrass (Sorghum halepense); test: as above; details: examined after 25 days, index 0-5
Description: as §1

[4] = system: johnsongrass (Sorghum halepense); test: Test Example 5: soil incorporation treatment on upland fields; details: examined after 19 days, index 0-5
Source text: (§2) Soil Incorporation Treatment on Upland Fields Cylindrical plastic pots of 10 cm in diameter and a 10 cm in depth were filled with upland soil. The soil from the surface to 3 cm in depth was taken and mixed with the dilution which was given by diluting the emulsifiable concentrates of the test compounds, formulated according to Formulation Example 2, with water at a volume of 606 liters per hectare. Thereafter, the treated soil was put back to the pots, in which johnsongrass (Sorghum halepense) was sowed at 1.5 cm in depth. The test plants were grown in a greenhouse for 19 days, and the herbicidal activity was examined.

[5] = system: johnsongrass (Sorghum halepense); test: Test Example 6: soil surface treatment on upland fields; details: examined after 25 days, index 0-5
Description: (§3) Soil Surface Treatment on Upland Fields Plastic pots which have an area of (26.5×19)cm^2 and a depth of 7 cm were filled with upland soil, seeded with johnsongrass (Sorghum halepense). Each of the test compounds was formulated into emulsifiable concentrates according to Formulation Example 2, which was diluted with a designated amount of water, and such was uniformly sprayed over the soil surface in the pots with a sprayer at a volume of 1000 liters per hectare. After the application, the test plants were placed in a greenhouse for 25 days, and the herbicidal activity was examined.

[6] = system: johnsongrass (Sorghum halepense); test: Test Example 2: soil surface treatment on upland fields; details: examined after 25 days, index 0-5
Description: Soil Surface Treatment on Upland Fields
as §3, with “Plastic” for “Soil Surface Treatment on Upland Fields Plastic”, “grown” for “placed”

[7] = system: johnsongrass (Sorghum halepense); test: Test Example (Table 3): soil incorporation treatment on upland fields; details: examined after 19 days, index 0-5
Source text: Soil Incorporation Treatment on Upland Fields
as §2, with “Cylindrical” for “Soil Incorporation Treatment on Upland Fields Cylindrical”

[8] = system: common cocklebur (Xanthium strumarium); test: Test Example 1: foliar treatment on upland fields; details: 1 g/ha active ingredient; foliar spray on 21-day plants, 1% Agri-Dex; examined after 21 days; index 0-5
Description: Foliar Treatment on Upland Fields
Plastic pots which have an area of (26.5×19)cm^2 and a depth of 7 cm were filled with upland soil, seeded with common cocklebur (Xanthium strumarium) and were given 21 days to grow in a greenhouse. Each of the test compounds was formulated into emulsifiable concentrates according to Formulation Example 2, which was diluted with a designated amount of water containing 1% Agri-Dex (adjuvant produced by Helena Chemical Company), and such was uniformly sprayed over the foliage of the test plants with a sprayer at a volume of 1000 liters per hectare. After the application, the test plants were grown in the greenhouse for 21 days, and the herbicidal activity was examined.

## CCOC(=O)C(C)Oc1cc(-n2c(=O)cc(C(F)(F)F)n(C)c2=O)c(F)cc1Cl (racemic) [Comparative Compound 2, ethyl (2RS)-2-[2-chloro-4-fluoro-5-[3-methyl-2,6-dioxo-4-(trifluoromethyl)-1,2,3,6-tetrahydropyrimidin-1-yl]phenoxy]propionate]
[1]; 16 g/ha
  Herbicidal Activity barnyard-grass: 0
[1]; 32 g/ha
  Herbicidal Activity barnyard-grass: 3
[1]; 63 g/ha
  Herbicidal Activity barnyard-grass: 3
[1]; 125 g/ha
  Herbicidal Activity barnyard-grass: 5
[2]; 16 g/ha
  Herbicidal Activity hemp sesbania: 0
[2]; 32 g/ha
  Herbicidal Activity hemp sesbania: 2
[2]; 63 g/ha
  Herbicidal Activity hemp sesbania: 3
[2]; 125 g/ha
  Herbicidal Activity hemp sesbania: 4
[3]; 16 g/ha
  Herbicidal Activity johnson-grass: 0
[3]; 32 g/ha
  Herbicidal Activity johnson-grass: 2
[3]; 63 g/ha
  Herbicidal Activity johnson-grass: 3
[3]; 125 g/ha
  Herbicidal Activity johnson-grass: 4
[4]; 20 g/ha
  Herbicidal Activity johnsongrass: 1
[4]; 40 g/ha
  Herbicidal Activity johnsongrass: 2
[4]; 80 g/ha
  Herbicidal Activity johnsongrass: 4

## C=CCOC(=O)C(C)Oc1cc(-n2c(=O)cc(C(F)(F)F)n(C)c2=O)c(F)cc1Cl (racemic) [Comparative Compound 3, allyl (2RS)-2-[2-chloro-4-fluoro-5-[3-methyl-2,6-dioxo-4-(trifluoromethyl)-1,2,3,6-tetrahydropyrimidin-1-yl]phenoxy]propionate, reference compound]
[5]; 16 g/ha
  Herbicidal Activity johnsongrass: 0
[5]; 32 g/ha
  Herbicidal Activity johnsongrass: 1
[5]; 63 g/ha
  Herbicidal Activity johnsongrass: 2

## COC(=O)C(C)Oc1cc(-n2c(=O)cc(C(F)(F)F)n(C)c2=O)c(F)cc1Cl (single isomer, unassigned) [Present Compound 6, methyl 2-[2-chloro-4-fluoro-5-[3-methyl-2,6-dioxo-4-(trifluoromethyl)-1,2,3,6-tetrahydropyrimidin-1-yl]phenoxy]propionate]
[6]; 16 g/ha
  Herbicidal Activity johnsongrass: 4
[6]; 32 g/ha
  Herbicidal Activity johnsongrass: 5
[6]; 63 g/ha
  Herbicidal Activity johnsongrass: 5
[7]; 20 g/ha
  Herbicidal Activity johnsongrass: 3
[7]; 40 g/ha
  Herbicidal Activity johnsongrass: 5
[7]; 80 g/ha
  Herbicidal Activity johnsongrass: 5

## COC(=O)C(C)Oc1cc(-n2c(=O)cc(C(F)(F)F)n(C)c2=O)c(F)cc1Cl (single isomer, unassigned) [Present Compound 7, methyl 2-[2-chloro-4-fluoro-5-[3-methyl-2,6-dioxo-4-(trifluoromethyl)-1,2,3,6-tetrahydropyrimidin-1-yl]phenoxy]propionate]
[6]; 16 g/ha
  Herbicidal Activity johnsongrass: 4
[6]; 32 g/ha
  Herbicidal Activity johnsongrass: 5
[6]; 63 g/ha
  Herbicidal Activity johnsongrass: 5
[7]; 20 g/ha
  Herbicidal Activity johnsongrass: 2
[7]; 40 g/ha
  Herbicidal Activity johnsongrass: 5
[7]; 80 g/ha
  Herbicidal Activity johnsongrass: 5

## COC(=O)[C@H](C)Oc1cc(-n2c(=O)cc(C(F)(F)F)n(C)c2=O)c(F)cc1Cl [Comparative Compound 1, methyl (2S)-2-[2-chloro-4-fluoro-5-[3-methyl-2,6-dioxo-4-(trifluoromethyl)-1,2,3,6-tetrahydropyrimidin-1-yl]phenoxy]propionate, reference compound]
[8]
  Herbicidal Activity Common Cocklebur: 0

## COC(=O)C(C)Oc1cc(-n2c(=O)cc(C(F)(F)F)n(C)c2=O)c(F)cc1Cl (centres unmarked) [Comparative Compound 4, methyl 2-[2-chloro-4-fluoro-5-[3-methyl-2,6-dioxo-4-(trifluoromethyl)-1,2,3,6-tetrahydropyrimidin-1-yl]phenoxy]propionate, reference compound]
[6]; 16 g/ha
  Herbicidal Activity johnsongrass: 1
[6]; 32 g/ha
  Herbicidal Activity johnsongrass: 2
[6]; 63 g/ha
  Herbicidal Activity johnsongrass: 4
[7]; 20 g/ha
  Herbicidal Activity johnsongrass: 0
[7]; 40 g/ha
  Herbicidal Activity johnsongrass: 2
[7]; 80 g/ha
  Herbicidal Activity johnsongrass: 4

## COC(=O)[C@@H](C)Oc1cc(-n2c(=O)cc(C(F)(F)F)n(C)c2=O)c(F)cc1Cl [Present Compound 1, methyl (2R)-2-[2-chloro-4-fluoro-5-[3-methyl-2,6-dioxo-4-(trifluoromethyl)-1,2,3,6-tetrahydropyrimidin-1-yl]phenoxy]propionate]
[8]
  Herbicidal Activity Common Cocklebur: 5

## CCOC(=O)[C@@H](C)Oc1cc(-n2c(=O)cc(C(F)(F)F)n(C)c2=O)c(F)cc1Cl [Present Compound 2, ethyl (2R)-2-[2-chloro-4-fluoro-5-[3-methyl-2,6-dioxo-4-(trifluoromethyl)-1,2,3,6-tetrahydropyrimidin-1-yl]phenoxy]propionate]
[1]; 16 g/ha
  Herbicidal Activity barnyard-grass: 5
[1]; 32 g/ha
  Herbicidal Activity barnyard-grass: 5
[1]; 63 g/ha
  Herbicidal Activity barnyard-grass: 5
[2]; 16 g/ha
  Herbicidal Activity hemp sesbania: 2
[2]; 32 g/ha
  Herbicidal Activity hemp sesbania: 5
[2]; 63 g/ha
  Herbicidal Activity hemp sesbania: 5
[3]; 16 g/ha
  Herbicidal Activity johnson-grass: 3
[3]; 32 g/ha
  Herbicidal Activity johnson-grass: 5
[3]; 63 g/ha
  Herbicidal Activity johnson-grass: 5
[4]; 20 g/ha
  Herbicidal Activity johnsongrass: 4
[4]; 40 g/ha
  Herbicidal Activity johnsongrass: 5
[4]; 80 g/ha
  Herbicidal Activity johnsongrass: 5

## C=CCOC(=O)[C@@H](C)Oc1cc(-n2c(=O)cc(C(F)(F)F)n(C)c2=O)c(F)cc1Cl [Present Compound 3, allyl (2R)-2-[2-chloro-4-fluoro-5-[3-methyl-2,6-dioxo-4-(trifluoromethyl)-1,2,3,6-tetrahydropyrimidin-1-yl]phenoxy]propionate]
[5]; 16 g/ha
  Herbicidal Activity johnsongrass: 3
[5]; 32 g/ha
  Herbicidal Activity johnsongrass: 5
[5]; 63 g/ha
  Herbicidal Activity johnsongrass: 5

## COC(=O)[C@@H](C)Oc1cc(-n2c(=O)cc(C(F)(F)F)n(C)c2=O)c(F)cc1Cl [Present Compound 5, methyl (2R)-2-[2-chloro-4-fluoro-5-[3-methyl-2,6-dioxo-4-(trifluoromethyl)-1,2,3,6-tetrahydropyrimidin-1-yl]phenoxy]propionate]
[6]; 16 g/ha
  Herbicidal Activity johnsongrass: 4
[6]; 32 g/ha
  Herbicidal Activity johnsongrass: 5
[6]; 63 g/ha
  Herbicidal Activity johnsongrass: 5
[7]; 20 g/ha
  Herbicidal Activity johnsongrass: 4
[7]; 40 g/ha
  Herbicidal Activity johnsongrass: 5
[7]; 80 g/ha
  Herbicidal Activity johnsongrass: 5
